# Measurements: US5567692A, “9-[(substituted glycyl) amido)]-6-demethyl-6-deoxytetracyclines” (priority 1995, dated 1996)
# Structures can show the parent of a compound that is named as a salt. Where two headings read alike, the source gives them in different places.
# How the values were obtained:
# E. coli J3272 Tet C = experiment: microbe, parasite or virus in culture; type: cell-based; conditions: Escherichia coli, J3272TETC, 18 h
# [1] = system: S. aureus UBMS 88-7 Tet K; experiment: microbe, parasite or virus in culture; type: cell-based; conditions: Staphylococcus aureus, UBMS887TETK, 18 h
# E. coli J3272 Tet D = experiment: microbe, parasite or virus in culture; type: cell-based; conditions: Escherichia coli, J3272TETD, 18 h
# E. coli J2175 = experiment: MIC, agar dilution; type: cell-based; conditions: Escherichia coli, 18 h, read-out: MIC
# S. aureus IVES 1983 = experiment: MIC, agar dilution; type: cell-based; conditions: Staphylococcus aureus, IVES1983, 18 h
# [2] = system: S. aureus UBMS 90-2 Tet M; experiment: microbe, parasite or virus in culture; type: cell-based; conditions: Staphylococcus aureus, UBMS902TETM, 18 h
# E. coli #311 (MP) = experiment: MIC, agar dilution; type: cell-based; conditions: Escherichia coli, 18 h
# S. aureus IVES 2943 = experiment: MIC, agar dilution; type: cell-based; conditions: Staphylococcus aureus, IVES2943, 18 h
# [3] = system: Ps. aeruginosa ATCC 27853; experiment: MIC, agar dilution; type: cell-based; conditions: Pseudomonas aeruginosa, ATCC27853, 18 h, Ps. aeruginosa ATCC 27853; read-out: MIC
# E. coli PRP1 Tet A = experiment: microbe, parasite or virus in culture; type: cell-based; conditions: Escherichia coli, PRP1TETA, 18 h
# S. aureus NEMC 8769 = experiment: MIC, agar dilution; type: cell-based; conditions: Staphylococcus aureus, NEMC8769, 18 h
# [4] = system: E. coli MC 4100 TNIOC Tet B; experiment: microbe, parasite or virus in culture; type: cell-based; conditions: Escherichia coli, 18 h
# E. coli UBMS 90-5 = experiment: microbe, parasite or virus in culture; type: cell-based; conditions: Escherichia coli, UBMS905, 18 h, E. coli UBMS 90-5; read-out: MIC
# E. faecalis ATCC 29212 = experiment: MIC, agar dilution; type: cell-based; conditions: Enterococcus faecalis, ATCC29212, 18 h
# E. coli BAJ9003 IMP MUT = experiment: microbe, parasite or virus in culture; type: cell-based; conditions: Escherichia coli, BAJ9003IMPMUT, 18 h
# S. aureus ROSE (MP) = experiment: MIC, agar dilution; type: cell-based; conditions: Staphylococcus aureus, 18 h
# [5] = system: S. aureus UBMS 88-5 Tet M; experiment: microbe, parasite or virus in culture; type: cell-based; conditions: Staphylococcus aureus, UBMS885TETM, 18 h
# S. aureus UBMS 90-3 = experiment: MIC, agar dilution; type: cell-based; conditions: Staphylococcus aureus, UBMS903, 18 h
# [6] = system: X. maltophilia NEMC 87210; experiment: MIC, agar dilution; type: cell-based; conditions: Stenotrophomonas maltophilia, NEMC87210, 18 h
# [7] = system: S. hemolyticus AVHAH 88-3; experiment: MIC, agar dilution; type: cell-based; conditions: Streptococcus pyogenes, AVHAH883, 18 h
# Enterococcus 12201 = experiment: MIC, agar dilution; type: cell-based; conditions: Enterococcus, 12201, 18 h
# S. marcescens FPOR 8733 = experiment: MIC, agar dilution; type: cell-based; conditions: Serratia marcescens, FPOR8733, 18 h
# S. aureus ATCC 29213 = experiment: MIC, agar dilution; type: cell-based; conditions: Staphylococcus aureus, ATCC29213, 18 h
# [8] = system: E. coli UBMS 89-2 Tet sens.; experiment: MIC, agar dilution; type: cell-based; conditions: Escherichia coli, 18 h
# S. aureus SMITH (MP) = experiment: MIC, agar dilution; type: cell-based; conditions: Staphylococcus aureus, 18 h
# E. coli J3272 Tet sens = experiment: MIC, agar dilution; type: cell-based; conditions: Escherichia coli, J3272TETSENS, 18 h
# E. coli UBMS 90-4 Tet M = experiment: microbe, parasite or virus in culture; type: cell-based; conditions: Escherichia coli, UBMS904TETM, 18 h
# [9] = system: S. aureus UBMS 90-1 Tet M; experiment: microbe, parasite or virus in culture; type: cell-based; conditions: Staphylococcus aureus, UBMS901TETM, 18 h
# E. coli UBMS 89-1 Tet M = experiment: microbe, parasite or virus in culture; type: cell-based; conditions: Escherichia coli, UBMS891TETM, 18 h
# S. aureus UBMS 88-4 = experiment: MIC, agar dilution; type: cell-based; conditions: Staphylococcus aureus, UBMS884, 18 h, S. aureus UBMS 88-4
# E. coli UBMS 88-1 Tet B = experiment: microbe, parasite or virus in culture; type: cell-based; conditions: Escherichia coli, UBMS881TETB, 18 h
# E. coli ATCC 25922 = experiment: MIC, agar dilution; type: cell-based; conditions: Escherichia coli, ATCC25922, 18 h
# [10] = system: Staphylococcus aureus strain Smith (tetracycline sensitive); experiment: Acute lethal infection in mice, S. aureus Smith; type: in vivo; conditions: for ED50: Staphylococcus aureus, 168 h, mice, S. aureus Smith (Sens), 7 day survival, read-out: ED50
# [11] = S. aureus IVES 2943, read-out: MIC
Structure (SMILES),MIC (E. coli J3272 Tet C),MIC [1],MIC (E. coli J3272 Tet D),MIC (E. coli J2175),MIC [2],MIC (E. coli #311 (MP)),MIC [3],MIC (E. coli PRP1 Tet A),MIC [4],MIC (E. coli UBMS 90-5),MIC (E. coli BAJ9003 IMP MUT),MIC [7],MIC (Enterococcus 12201),MIC (S. marcescens FPOR 8733),MIC [8],MIC (S. aureus SMITH (MP)),MIC (E. coli J3272 Tet sens),MIC (E. coli UBMS 90-4 Tet M),MIC [9],MIC (E. coli UBMS 89-1 Tet M),other results
"CC(Br)C(=O)Nc1ccc2c(c1O)C(=O)C1=C(O)[C@]3(O)C(=O)C(C(N)=O)=C(O)[C@@H](N(C)C)C3CC1C2 (stereo partly drawn) [S, [4S-(4alpha,12aalpha)]-9-[(2-Bromo-1-oxopropyl)amino]-4-(dimethylamino)-1,4,4a,5,5a,6,11,12a-octahydro-3,10,12,12a-tetrahydroxy-1,11-dioxo-2-naphthacenecarboxamide dihydrochloride]",> 32 µg/mL,16 µg/mL,> 32 µg/mL,16 µg/mL,16 µg/mL,8 µg/mL,> 32 µg/mL,> 32 µg/mL,> 32 µg/mL,8 µg/mL,1 µg/mL,8 µg/mL,32 µg/mL,> 32 µg/mL,16 µg/mL,1 µg/mL,4 µg/mL,> 32 µg/mL,32 µg/mL,> 32 µg/mL,"MIC (S. aureus IVES 1983; S. aureus IVES 1983, read-out: MIC): 32 µg/mL; MIC (S. aureus IVES 2943; [11]): 32 µg/mL; MIC (S. aureus NEMC 8769; read-out: MIC): 0.25 µg/mL; MIC (E. faecalis ATCC 29212): 16 µg/mL; MIC (S. aureus ROSE (MP)): > 32 µg/mL; MIC [5]: 32 µg/mL; MIC (S. aureus UBMS 90-3; S. aureus UBMS 90-3, read-out: MIC): 2 µg/mL; MIC ([6]; X. maltophilia NEMC 87210, read-out: MIC): 16 µg/mL; MIC (S. aureus ATCC 29213; S. aureus ATCC 29213, read-out: MIC): 2 µg/mL; MIC (S. aureus UBMS 88-4; read-out: MIC): 2 µg/mL; MIC (E. coli UBMS 88-1 Tet B): > 32 µg/mL; MIC (E. coli ATCC 25922): 8 µg/mL"
"CCCCNCC(=O)Nc1ccc2c(c1O)C(=O)C1=C(O)[C@]3(O)C(=O)C(C(N)=O)=C(O)[C@@H](N(C)C)C3CC1C2 (stereo partly drawn) [H, [4S-(4alpha,12aalpha)]-9-[[(Butylamino)acetyl]amino]-4-(dimethylamino)-1,4,4a,5,5a,6,11,12a-octahydro-3,10,12,12a-tetrahydroxy-1,11-dioxo-2-naphthacenecarboxamide dihydrochloride]",0.12 µg/mL,1 µg/mL,0.06 µg/mL,0.25 µg/mL,0.12 µg/mL,0.12 µg/mL,8 µg/mL,0.25 µg/mL,0.25 µg/mL,0.12 µg/mL,0.06 µg/mL,0.5 µg/mL,0.12 µg/mL,2 µg/mL,0.12 µg/mL,0.12 µg/mL,0.12 µg/mL,0.12 µg/mL,0.12 µg/mL,0.12 µg/mL,"MIC (S. aureus IVES 1983): 2 µg/mL; MIC (S. aureus IVES 2943; [11]): 1 µg/mL; MIC (S. aureus NEMC 8769): 0.03 µg/mL; MIC (E. faecalis ATCC 29212; E. faecalis ATCC 29212, read-out: MIC): 0.12 µg/mL; MIC (S. aureus ROSE (MP); read-out: MIC): 4 µg/mL; MIC ([5]; S. aureus UBMS 88-5 Tet M): 0.06 µg/mL; MIC (S. aureus UBMS 90-3): 0.03 µg/mL; MIC [6]: 1 µg/mL; ED50 ([10]; iv, Intraveneous): 0.5 to 1 mg/kg; ED50 ([10]; po, Oral): > 16 mg/kg; in vivo activity (in words) ([10]; tested intravenously against the minocycline sensitive organism S. aureus Smith): very good in vivo activity; MIC (S. aureus ATCC 29213): 0.06 µg/mL; MIC (S. aureus UBMS 88-4): 0.06 µg/mL; MIC (E. coli UBMS 88-1 Tet B): 0.25 µg/mL; MIC (E. coli ATCC 25922): 0.12 µg/mL"
"CN(C)[C@@H]1C(O)=C(C(N)=O)C(=O)[C@@]2(O)C(O)=C3C(=O)c4c(ccc(NC(=O)CBr)c4O)CC3CC12 (stereo partly drawn) [R, [4S-(4alpha,12aalpha)]-9-((Bromoacetyl)amino]-4-(dimethylamino)-1,4,4a,5,5a,6,11,12a-octahydro-3,10,12,12a-tetrahydroxy-1,11-dioxo-2-naphthacenecarboxamide monohydrochloride]",> 32 µg/mL,8 µg/mL,> 32 µg/mL,32 µg/mL,2 µg/mL,16 µg/mL,> 32 µg/mL,> 32 µg/mL,> 32 µg/mL,32 µg/mL,1 µg/mL,8 µg/mL,4 µg/mL,> 32 µg/mL,32 µg/mL,1 µg/mL,32 µg/mL,32 µg/mL,1 µg/mL,8 µg/mL,MIC (S. aureus IVES 1983): 16 µg/mL; MIC (S. aureus IVES 2943): 16 µg/mL; MIC (S. aureus NEMC 8769; read-out: MIC): 0.25 µg/mL; MIC (E. faecalis ATCC 29212): 2 µg/mL; MIC (S. aureus ROSE (MP)): 16 µg/mL; MIC [5]: 2 µg/mL; MIC (S. aureus UBMS 90-3): 1 µg/mL; MIC [6]: 16 µg/mL; MIC (S. aureus ATCC 29213; S. aureus ATCC 29213): 1 µg/mL; MIC (S. aureus UBMS 88-4; read-out: MIC): 0.5 µg/mL; MIC (E. coli UBMS 88-1 Tet B): > 32 µg/mL; MIC (E. coli ATCC 25922): 16 µg/mL
